Experimental data from patent US20240158446A1, “CYCLIC COMPOUND HAVING SELECTIVE INHIBITORY ACTION ON KRAS OVER HRAS AND NRAS” (CHUGAI SEIYAKU KABUSHIKI KAISHA, priority 2021, published 2024).
Like-named read-outs stand apart in the source and are kept apart here.

Experiments:
[1] = target: GDP-bound KRAS wild-type protein (Homo sapiens, UniProt P01116); test: Binding to KRAS by surface plasmon resonance (SPR), Single Cycle Kinetics
[2] = target: GDP-bound HRAS wild-type protein (Homo sapiens, UniProt P01112); test: Binding to HRAS by surface plasmon resonance (SPR), Single Cycle Kinetics; settings: for HRAS/KRAS (ratio of KD value for HRAS to KD value for KRAS): GDP-bound HRAS wild-type protein vs GDP-bound KRAS wild-type protein; for HRAS/KRAS (ratio of KD value with respect to GDP-bound HRAS wild-type protein to KD value with respect to KRAS): SPR KD ratio HRAS/KRAS, class symbols
[3] = tested on: human lung cancer strain NCI-H441;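 further: cell proliferation inhibition after four days measured by CellTiter-Glo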
[4] = target: GDP-bound NRAS wild-type protein (Homo sapiens, UniProt P01111); test: Binding to NRAS by surface plasmon resonance (SPR), Single Cycle Kinetics; settings: for NRAS/KRAS (ratio of KD value for NRAS to KD value for KRAS): GDP-bound NRAS wild-type protein vs GDP-bound KRAS wild-type protein; for NRAS/KRAS (ratio of KD value with respect to GDP-bound NRAS wild-type protein to KD value with respect to KRAS): SPR KD ratio NRAS/KRAS, class symbols
[5] = SPR, Single Cycle Kinetics, GDP-bound KRAS wild-type protein, read-out: KRAS KD
[6] = SPR, Single Cycle Kinetics, 1:1 binding model, GDP-bound KRAS wild-type protein, read-out: KRAS KD
[7] = SPR Single Cycle Kinetics, GDP-bound KRAS wild-type protein, 1:1 binding model, read-out: KRAS KD

Chain of GDP-bound KRAS wild-type protein (P01116 whole entry): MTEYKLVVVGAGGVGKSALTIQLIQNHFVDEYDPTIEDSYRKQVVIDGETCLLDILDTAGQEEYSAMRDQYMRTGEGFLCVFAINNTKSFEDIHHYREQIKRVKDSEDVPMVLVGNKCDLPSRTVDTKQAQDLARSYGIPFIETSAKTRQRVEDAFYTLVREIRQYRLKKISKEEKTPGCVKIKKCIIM
Chain of GDP-bound HRAS wild-type protein (P01112 whole entry): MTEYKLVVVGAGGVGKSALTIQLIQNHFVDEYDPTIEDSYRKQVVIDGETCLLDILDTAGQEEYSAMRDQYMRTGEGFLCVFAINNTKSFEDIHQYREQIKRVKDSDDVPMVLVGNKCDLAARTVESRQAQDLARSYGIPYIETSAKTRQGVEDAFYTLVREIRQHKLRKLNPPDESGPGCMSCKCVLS
Chain of GDP-bound NRAS wild-type protein (P01111 whole entry): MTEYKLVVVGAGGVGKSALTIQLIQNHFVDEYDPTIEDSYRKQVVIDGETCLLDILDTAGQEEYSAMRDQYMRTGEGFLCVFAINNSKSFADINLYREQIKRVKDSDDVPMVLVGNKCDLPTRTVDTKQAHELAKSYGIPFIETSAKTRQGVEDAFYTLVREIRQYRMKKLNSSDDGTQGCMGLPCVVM

Row | SMILES | Kd [1, 5] [nM] | HRAS/KRAS (ratio of KD value for HRAS to KD value for KRAS) ([2]; SPR) | NRAS/KRAS (ratio of KD value for NRAS to KD value for KRAS) ([4]; SPR) | IC50 [3] [nM] | Kd [1, 6] [nM] | HRAS/KRAS (ratio of KD value for HRAS to KD value for KRAS) ([2]; SPR, KD ratio class) | NRAS/KRAS (ratio of KD value for NRAS to KD value for KRAS) ([4]; SPR, KD ratio class) | further results
1 | CCC[C@H]1C(=O)N[C@@H]([C@@H](C)CC)C(=O)N(C2CC2)CC(=O)N(C)[C@H]2C/C=C\CCN(C2=O)[C@@H](Cc2ccc(C)cc2)C(=O)N(C)CC(=O)N[C@@H](CCc2cc(F)c(C(F)(F)F)c(F)c2)C(=O)N2C[C@H](OCC)C[C@H]2C(=O)N(C)C2(CCC2)C(=O)N(C)[C@@H](C2CCCC2)C(=O)N(C)[C@H](C(=O)N2CCCC2)CC(=O)N1C [PP3113, (2S,8S,12R,14S,20S,23S,27S,30S,36S,38Z)-20-cyclopentyl-32-cyclopropyl-8-[2-[3,5-difluoro-4-(trifluoromethyl)phenyl]ethyl]-12-ethoxy-4,16,19,22,26,35-hexamethyl-30-[(1S)-1-methylpropyl]-27-propyl-2-(p-tolylmethyl)-23-(pyrrolidine-1-carbonyl)spiro[1,4,7,10,16,19,22,26,29,32,35-undecazatricyclo[34.5.1.0^10,14]dotetracont-38-ene-17,1′-cyclobutane]-3,6,9,15,18,21,25,28,31,34,42-undecone] | 0.17 | A (a compound having 10 or more and less than 20 is denoted as A) | A (a compound having 10 or more and less than 20 is denoted as A) | – | – | – | – | Kd ([1]; SPR, Single Cycle Kinetics, 1:1 binding model, read-out: KD value with respect to GDP-bound KRAS wild-type protein): 0.17 nM; ratio of the KD value with respect to GDP-bound HRAS wild-type protein to the KD value with respect to KRAS ([2]; SPR, KD(HRAS)/KD(KRAS)): A (a compound having 10 or more and less than 20 is denoted as A); IC50 ([3]; read-out: NCI-H441 cell proliferation inhibitory activity, 50% proliferation inhibitory concentration (IC50 value), NCI-H441, four days, CellTiter-Glo): 6.1 nM; ratio of the KD value with respect to GDP-bound NRAS wild-type protein to the KD value with respect to KRAS ([4]; SPR, KD(NRAS)/KD(KRAS)): A (a compound having 10 or more and less than 20 is denoted as A)
2 | CCOC[C@H]1C(=O)N[C@@H]([C@@H](C)CC)C(=O)N(C)CC(=O)N(C)[C@H]2C/C=C\CCN(C2=O)[C@@H](Cc2ccc(C)cc2)C(=O)N(C)CC(=O)N[C@@H](CCc2ccc(C(F)(F)F)c(OC)c2)C(=O)N2C[C@@H](C)C[C@H]2C(=O)NC2(CC(C)(C)C2)C(=O)N(C)[C@@H](C2CCCC2)C(=O)N(C)[C@H](C(=O)N(C)C)CC(=O)N1C [PP2505] | 0.13 | B (a compound having 3 or more and less than 10 is denoted as B) | A (a compound having 10 or more and less than 20 is denoted as A) | 17.2 | – | – | – | –
3 | CCO[C@@H]1C[C@H]2C(=O)NC3(CCCC3)C(=O)N(C)[C@@H](C3CCCC3)C(=O)N(C)[C@H](C(=O)N3CCOCC3)CC(=O)N(C)[C@@H](CC)C(=O)N[C@@H]([C@@H](C)CC)C(=O)N(C)CC(=O)N(C)[C@H]3CC[C@@H](C)CN(C3=O)[C@@H](Cc3ccc(C(F)(F)F)cc3)C(=O)N(C)CC(=O)N[C@@H](CCc3ccc(C(F)(F)F)c(Cl)c3)C(=O)N2C1 [PP1377] | – | – | – | 5.8 | 0.087 | B (a compound having 3 or more and less than 10 is denoted as B) | B (a compound having 3 or more and less than 10 is denoted as B) | –
4 | CCC[C@H]1C(=O)N[C@@H](CC(C)C)C(=O)N2C[C@@H](OC)C[C@H]2C(=O)N(C)[C@H]2C/C=C\CCN(C2=O)[C@@H](Cc2ccc(C)cc2)C(=O)N(C)CC(=O)N[C@@H](CCc2ccc(C(F)(F)F)c(Cl)c2)C(=O)N2C[C@H](OCC)C[C@H]2C(=O)NC2(CC(C)(C)C2)C(=O)N(C)[C@@H](C2CCCC2)C(=O)N(C)[C@H](C(=O)N(C)C)CC(=O)N1C [PP2555] | – | – | – | 212 | – | – | – | Kd [1, 7]: 4.1 nM; HRAS/KRAS (ratio of KD value with respect to GDP-bound HRAS wild-type protein to KD value with respect to KRAS) [2]: B (a compound having 3 or more and less than 10 is denoted as B); NRAS/KRAS (ratio of KD value with respect to GDP-bound NRAS wild-type protein to KD value with respect to KRAS) [4]: A (a compound having 10 or more and less than 20 is denoted as A)
5 | CC[C@H](C)[C@@H]1NC(=O)[C@H](CC)N(C)C(=O)C[C@@H](C(=O)N(C)C)N(C)C(=O)[C@H](C2CCCC2)N(C)C(=O)C2(CCC2)NC(=O)[C@@H]2CC(F)(F)CN2C(=O)[C@H](CCc2cc(F)c(C(F)(F)F)c(F)c2)NC(=O)CN(C)C(=O)[C@H](CC2CCCCC2)N2CC/C=C\C[C@@H](C2=O)N(C)C(=O)CN(C)C1=O [PP1462, (2S,8S,14S,20S,23S,27S,30S,36S,38Z)-2-(cyclohexylmethyl)-20-cyclopentyl-8-[2-[3,5-difluoro-4-(trifluoromethyl)phenyl]ethyl]-27-ethyl-12,12-difluoro-N,N,4,19,22,26,32,35-octamethyl-30-[(1S)-1-methylpropyl]-3,6,9,15,18,21,25,28,31,34,42-undecaoxo-spiro[1,4,7,10,16,19,22,26,29,32,35-undecazatricyclo[34.5.1.0^10,14]dotetracont-38-ene-17,1′-cyclobutane]-23-carboxamide] | – | – | – | 27.5 | 0.12 | A (a compound having 10 or more and less than 20 is denoted as A) | A (a compound having 10 or more and less than 20 is denoted as A) | –
6 | CCO[C@@H]1C[C@H]2C(=O)NC3(CCC3)C(=O)N(C)[C@@H](C3CCCC3)C(=O)N(C)[C@H](C(=O)N3CCCC3)CC(=O)N(C)[C@@H](CC3CCCC3)C(=O)N[C@@H]([C@@H](C)CC)C(=O)N(C)CC(=O)N(C)[C@H]3C/C=C\CCN(C3=O)[C@@H](Cc3ccc(F)cc3)C(=O)N(C)CC(=O)N[C@@H](CCc3ccc4sccc4c3)C(=O)N2C1 [PP1391] | – | – | – | 271 | 1.6 | A (a compound having 10 or more and less than 20 is denoted as A) | A (a compound having 10 or more and less than 20 is denoted as A) | –
7 | CCO[C@@H]1C[C@H]2C(=O)NC3(CCC3)C(=O)N(C)[C@@H](C3CCCC3)C(=O)N(C)[C@H](C(=O)N3CCC3)CC(=O)N(C)[C@@H](CC)C(=O)N[C@@H]([C@@H](C)CC)C(=O)N(C)CC(=O)N(C)[C@H]3C/C=C\CCN(C3=O)[C@@H](CC3CCC(F)(F)CC3)C(=O)N(C)CC(=O)N[C@@H](CCc3cc(F)c(C(F)(F)F)c(F)c3)C(=O)N2C1 [PP1444] | – | – | – | 103 | 0.19 | A (a compound having 10 or more and less than 20 is denoted as A) | A (a compound having 10 or more and less than 20 is denoted as A) | –
8 | CCC[C@H]1C(=O)N[C@@H]([C@@H](C)CC)C(=O)N(C)CC(=O)N(C)[C@H]2C/C=C\CCN(C2=O)[C@@H](Cc2ccc(C)cc2)C(=O)N(C)CC(=O)N[C@@H](CCc2ccc(C(F)(F)F)c(OC)c2)C(=O)N2C[C@@H](C)C[C@H]2C(=O)N(C)C2(CCC2)C(=O)N(C)[C@@H](C2CCCC2)C(=O)N(C)[C@H](C(=O)N(C)C)CC(=O)N1C [PP2364] | 0.016 | B (a compound having 3 or more and less than 10 is denoted as B) | A (a compound having 10 or more and less than 20 is denoted as A) | 4.6 | – | – | – | –
9 | CCC(CC)[C@H]1C(=O)N(C)[C@H](C(=O)N(C)C)CC(=O)N(C)[C@@H](COC)C(=O)N[C@@H]([C@@H](C)CC)C(=O)N(C)CC(=O)N(C)[C@H]2C/C=C\CCN(C2=O)[C@@H](Cc2ccc(C(F)(F)F)cc2)C(=O)N(C)CC(=O)N[C@@H](CCc2ccc(Cl)c(Cl)c2)C(=O)N2C[C@H](OC3CCC3)C[C@H]2C(=O)NC2(CC(C)(C)C2)C(=O)N1C [PP2642] | – | – | – | 36.6 | – | – | – | Kd [1, 7]: 0.44 nM; HRAS/KRAS (ratio of KD value with respect to GDP-bound HRAS wild-type protein to KD value with respect to KRAS) [2]: A (a compound having 10 or more and less than 20 is denoted as A); NRAS/KRAS (ratio of KD value with respect to GDP-bound NRAS wild-type protein to KD value with respect to KRAS) [4]: AA (a compound having 20 or more is denoted as AA)
10 | CCCOC[C@H]1C(=O)N[C@@H]([C@@H](C)CC)C(=O)N(C)CC(=O)N(C)[C@H]2C/C=C\CCN(C2=O)[C@@H](Cc2ccc(C)cc2)C(=O)N(C)CC(=O)N[C@@H](CCc2cc(F)c(C(F)(F)F)c(F)c2)C(=O)N2C[C@@H](C)C[C@H]2C(=O)NC2(CC(C)(C)C2)C(=O)N(C)[C@@H](C2CCCC2)C(=O)N(C)[C@H](C(=O)N(C)CC)CC(=O)N1C [PP2471] | 0.16 | A (a compound having 10 or more and less than 20 is denoted as A) | A (a compound having 10 or more and less than 20 is denoted as A) | 15.3 | – | – | – | –
11 | CCO[C@@H]1C[C@H]2C(=O)NC3(CCC3)C(=O)N(C)[C@@H](C3CCCC3)C(=O)N(C)[C@H](C(=O)N3CCOCC3)CC(=O)N(C)[C@@H](Cc3ccc(Cl)c(Cl)c3)C(=O)N[C@@H]([C@@H](C)CC)C(=O)N(C)CC(=O)N(C)[C@H]3CCCCCN(C3=O)[C@@H](Cc3ccc(F)cc3)C(=O)N(C)CC(=O)N[C@@H](CCc3cc(F)c(C(F)(F)F)c(F)c3)C(=O)N2C1 [PP1188] | 0.43 | B (a compound having 3 or more and less than 10 is denoted as B) | B (a compound having 3 or more and less than 10 is denoted as B) | 33.5 | – | – | – | –
12 | CCC[C@H]1C(=O)N[C@@H]([C@@H](C)CC)C(=O)N(C2CC2)CC(=O)N(C)[C@H]2C/C=C\CCN(C2=O)[C@@H](Cc2ccc(C)cc2)C(=O)N(C)CC(=O)N[C@@H](CCc2ccc(C(F)(F)F)c(OC)c2)C(=O)N2C[C@H](OCC)C[C@H]2C(=O)NC2(CC(C)(C)C2)C(=O)N(C)[C@@H](CC(C)(C)C)C(=O)N(C)[C@H](C(=O)N(C)C)CC(=O)N1C [PP2722] | – | – | – | 13.9 | – | – | – | Kd [1, 7]: 0.4 nM; HRAS/KRAS (ratio of KD value with respect to GDP-bound HRAS wild-type protein to KD value with respect to KRAS) [2]: B (a compound having 3 or more and less than 10 is denoted as B); NRAS/KRAS (ratio of KD value with respect to GDP-bound NRAS wild-type protein to KD value with respect to KRAS) [4]: B (a compound having 3 or more and less than 10 is denoted as B)
